Data taken from US8613914B2, “Peptidomimetic sulfamide compounds and antiviral uses thereof” (Novartis AG, priority 2009, dated 2013).

Molecular target: HCV NS3-4A serine protease (full-length NS3-4A protein) (Hepatitis C virus genotype 1a (isolate 1) (HCV), UniProt P26664)
Experiment: HCV NS3-4A protease assay
Format: biochemical, HCV genotype 1a
Settings: strain HCV-1, fluorogenic peptide substrate, read-out: Protease assay Ex. 12 IC50
Description: The inhibitory activity of certain compounds of Table A against HCV NS3-4A serine protease is determined in a homogenous assay using the full-length NS3-4A protein (genotype 1a, strain HCV-1) and a commercially available internally-quenched fluorogenic peptide substrate as described by Taliani, M., et al. 1996 Anal. Biochem. 240:60-67, which is incorporated by reference in its entirety.

HCV NS3-4A serine protease (full-length NS3-4A protein), sequence (P26664 1027-1657): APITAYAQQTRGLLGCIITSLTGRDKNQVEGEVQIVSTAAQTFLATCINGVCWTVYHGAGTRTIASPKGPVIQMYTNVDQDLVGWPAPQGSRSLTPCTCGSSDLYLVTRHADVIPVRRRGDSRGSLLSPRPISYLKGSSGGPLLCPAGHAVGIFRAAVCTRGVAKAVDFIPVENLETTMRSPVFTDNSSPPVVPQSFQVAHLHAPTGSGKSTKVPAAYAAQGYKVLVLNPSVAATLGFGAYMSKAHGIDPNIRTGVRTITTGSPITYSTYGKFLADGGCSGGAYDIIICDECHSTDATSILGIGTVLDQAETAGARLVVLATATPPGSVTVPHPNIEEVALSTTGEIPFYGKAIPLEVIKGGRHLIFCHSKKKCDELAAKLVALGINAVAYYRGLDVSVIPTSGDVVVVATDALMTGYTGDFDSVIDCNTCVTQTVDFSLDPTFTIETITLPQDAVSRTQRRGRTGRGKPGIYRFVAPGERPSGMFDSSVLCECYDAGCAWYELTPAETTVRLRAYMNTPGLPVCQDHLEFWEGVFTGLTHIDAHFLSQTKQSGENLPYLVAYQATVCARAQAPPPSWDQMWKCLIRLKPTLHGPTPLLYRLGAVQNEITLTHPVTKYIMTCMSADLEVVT
HCV NS3-4A serine protease (full-length NS3-4A protein), sequence (P26664 1658-1711 partner): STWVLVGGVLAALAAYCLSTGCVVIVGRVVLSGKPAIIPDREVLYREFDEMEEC

Compound | IC50 [nM]
C=C[C@@H]1C[C@]1(NC(=O)[C@@H]1C[C@@]2(CN1C(=O)[C@@H](NC(=O)[C@@H](NC(=O)[C@@H]1CCCCN1C(C)C)C1CCCCC1)C1CCCCC1)C(C)(C)C21CCC1)C(=O)NS(=O)(=O)N1CCCC1 [Compound 35, (5R,8S)-7-[(2S)-2-cyclohexyl-2-{[(2S)-2-cyclohexyl-2-({[(2S)-1-isopropylpiperidin-2-yl]carbonyl}amino)acetyl]amino}acetyl]-10,10-dimethyl-N-{(1R,2S)-1-[(pyrrolidin-1-ylsulfonyl)carbamoyl]-2-vinylcyclopropyl}-7-azadispiro[3.0.4.1]decane-8-carboxamide] | 3
C=C[C@@H]1C[C@]1(NC(=O)[C@@H]1C[C@@]2(CN1C(=O)[C@@H](NC(=O)[C@@H](NC(=O)Cc1ccncc1)C1CCCCC1)C(C)(C)C)C(C)(C)C21CCC1)C(=O)NS(=O)(=O)N1CCCC1 [Compound 175, (5R,8S)-7-[(2S)-2-({cyclohexyl[(pyridin-4-ylacetyl)amino]acetyl}amino)-3,3-dimethylbutanoyl]-10,10-dimethyl-N-{(1R,2S)-1-[(pyrrolidin-1-ylsulfonyl)carbamoyl]-2-vinylcyclopropyl}-7-azadispiro[3.0.4.1]decane-8-carboxamide] | 10
C=C[C@@H]1C[C@]1(NC(=O)[C@@H]1C[C@@]2(CN1C(=O)[C@@H](NC(=O)[C@@H](NC(=O)[C@H]1CCCCN1C(C)C)C1CCCCC1)C(C)(C)C)C(C)(C)C21CCC1)C(=O)NS(=O)(=O)N(C)C(C)C [Compound 119, (5R,8S)-7-[(2S)-2-{[(2S)-2-cyclohexyl-2-({[(2R)-1-isopropylpiperidin-2-yl]carbonyl}amino)acetyl]amino}-3,3-dimethylbutanoyl]-N-[(1R,2S)-1-({[isopropyl(methyl)amino]sulfonyl}carbamoyl)-2-vinylcyclopropyl]-10,10-dimethyl-7-azadispiro[3.0.4.1]decane-8-carboxamide] | 6.5
C=C[C@@H]1C[C@]1(NC(=O)C1C[C@@]2(CN1C(=O)[C@@H](NC(=O)C1CCCNC1=O)C(C)(C)C)C(C)(C)C21CCC1)C(=O)NS(=O)(=O)N1CCCC1 (stereo partly drawn) [Compound 78, (5R)-7-[(2S)-3,3-dimethyl-2-{[(2-oxopiperidin-3-yl)carbonyl]amino}butanoyl]-10,10-dimethyl-N-{(1R,2S)-1-[(pyrrolidin-1-ylsulfonyl)carbamoyl]-2-vinylcyclopropyl}-7-azadispiro[3.0.4.1]decane-8-carboxamide] | 650
C=C[C@@H]1C[C@]1(NC(=O)[C@@H]1C[C@@]2(CN1C(=O)[C@@H](NC(=O)[C@@H](NC(=O)[C@@H]1CCCCN1C(C)C)C1CCCCC1)C1(C)CCOCC1)C(C)(C)C21CCC1)C(=O)NS(=O)(=O)N1CCCC1 [Compound 124, (5R,8S)-7-[(2S)-2-{[(2S)-2-cyclohexyl-2-({[(2S)-1-isopropylpiperidin-2-yl]carbonyl}amino)acetyl]amino}-2-(4-methyltetrahydro-2H-pyran-4-yl)acetyl]-10,10-dimethyl-N-{(1R,2S)-1-[(pyrrolidin-1-ylsulfonyl)carbamoyl]-2-vinylcyclopropyl}-7-azadispiro[3.0.4.1]decane-8-carboxamide] | 1.5
C=C[C@@H]1C[C@]1(NC(=O)[C@@H]1C[C@@]2(CN1C(=O)[C@@H](NC(=O)[C@@H](NC(=O)c1cccnc1N(C)C)C1CCCCC1)C(C)(C)C)C(C)(C)C21CCC1)C(=O)NS(=O)(=O)N1CCCC1 [Compound 70, (5R,8S)-7-[(2S)-2-{[(2S)-2-cyclohexyl-2-({[2-(dimethylamino)pyridin-3-yl]carbonyl}amino)acetyl]amino}-3,3-dimethylbutanoyl]-10,10-dimethyl-N-{(1R,2S)-1-[(pyrrolidin-1-ylsulfonyl)carbamoyl]-2-vinylcyclopropyl}-7-azadispiro[3.0.4.1]decane-8-carboxamide] | 35
C=C[C@@H]1C[C@]1(NC(=O)[C@@H]1C[C@@]2(CN1C(=O)[C@@H](NC(=O)[C@@H](NC(=O)c1cnn(-c3ccccc3)c1)C1CCCCC1)C(C)(C)C)C(C)(C)C21CCC1)C(=O)NS(=O)(=O)N1CCCC1 [Compound 184, (5R,8S)-7-{(2S)-2-[(cyclohexyl{[(1-phenyl-1H-pyrazol-4-yl)carbonyl]amino}acetyl)amino]-3,3-dimethylbutanoyl}-10,10-dimethyl-N-{(1R,2S)-1-[(pyrrolidin-1-ylsulfonyl)carbamoyl]-2-vinylcyclopropyl}-7-azadispiro[3.0.4.1]decane-8-carboxamide] | 35
C=C[C@@H]1C[C@]1(NC(=O)[C@@H]1C[C@@]2(CN1C(=O)[C@@H](NC(=O)[C@@H](NC(=O)c1cc(C)nn1CC)C1CCCCC1)C(C)(C)C)C(C)(C)C21CCC1)C(=O)NS(=O)(=O)N1CCCC1 [Compound 180, (5R,8S)-7-{(2S)-2-[(cyclohexyl{[(1-ethyl-3-methyl-1H-pyrazol-5-yl)carbonyl]amino}acetyl)amino]-3,3-dimethylbutanoyl}-10,10-dimethyl-N-{(1R,2S)-1-[(pyrrolidin-1-ylsulfonyl)carbamoyl]-2-vinylcyclopropyl}-7-azadispiro[3.0.4.1]decane-8-carboxamide] | 30
C=C[C@@H]1C[C@]1(NC(=O)[C@@H]1C[C@@]2(CN1C(=O)[C@@H](NC(=O)[C@@H](NC(=O)C(C)(C)N1CCCC1)C1CCCCC1)C(C)(C)C)C(C)(C)C21CCC1)C(=O)NS(=O)(=O)N1CCCC1 [Compound 14, (5R,8S)-7-[(2S)-2-({(2S)-2-cyclohexyl-2-[(2-methyl-2-pyrrolidin-1-ylpropanoyl)amino]acetyl}amino)-3,3-dimethylbutanoyl]-10,10-dimethyl-N-{(1R,2S)-1-[(pyrrolidin-1-ylsulfonyl)carbamoyl]-2-vinylcyclopropyl}-7-azadispiro[3.0.4.1]decane-8-carboxamide] | 3
C=C[C@@H]1C[C@]1(NC(=O)[C@@H]1C[C@@]2(CN1C(=O)[C@@H](NC(=O)[C@@H](NC(=O)[C@@H]1CCCN1CC)C1CCCCC1)C(C)(C)C)C(C)(C)C21CCC1)C(=O)NS(=O)(=O)N(CC)C(C)C [Compound 111, (5R,8S)-7-[(2S)-2-{[(2S)-2-cyclohexyl-2-({[(2S)-1-ethylpyrrolidin-2-yl]carbonyl}amino)acetyl]amino}-3,3-dimethylbutanoyl]-N-[(1R,2S)-1-({[ethyl(isopropyl)amino]sulfonyl}carbamoyl)-2-vinylcyclopropyl]-10,10-dimethyl-7-azadispiro[3.0.4.1]decane-8-carboxamide] | 8
C=C[C@@H]1C[C@]1(NC(=O)[C@@H]1C[C@@]2(CN1C(=O)[C@@H](NC(=O)[C@@H](NC(=O)[C@@H]1CCCN1CC)C1(C)CCCCC1)C1(C)CCOCC1)C(C)(C)C21CCC1)C(=O)NS(=O)(=O)N(CC)CC [Compound 153, (5R,8S)-N-[(1R,2S)-1-{[(diethylamino)sulfonyl]carbamoyl}-2-vinylcyclopropyl]-7-[(2S)-2-{[(2S)-2-({[(2S)-1-ethylpyrrolidin-2-yl]carbonyl}amino)-2-(1-methylcyclohexyl)acetyl]amino}-2-(4-methyltetrahydro-2H-pyran-4-yl)acetyl]-10,10-dimethyl-7-azadispiro[3.0.4.1]decane-8-carboxamide] | 1.8
